# According to patent publication US20250302775A1, “METHODS FOR THE TREATMENT OF DEPRESSION” (Autobahn Therapeutics, Inc., priority 2022, published 2025):
# Target: T1, recombinant human FAAH (rhFAAH) (Homo sapiens, UniProt O00519)
# T1 construct: purchased Cayman Chemical (Ann Arbor, MI, USA)
# T1 sequence (O00519 1-579): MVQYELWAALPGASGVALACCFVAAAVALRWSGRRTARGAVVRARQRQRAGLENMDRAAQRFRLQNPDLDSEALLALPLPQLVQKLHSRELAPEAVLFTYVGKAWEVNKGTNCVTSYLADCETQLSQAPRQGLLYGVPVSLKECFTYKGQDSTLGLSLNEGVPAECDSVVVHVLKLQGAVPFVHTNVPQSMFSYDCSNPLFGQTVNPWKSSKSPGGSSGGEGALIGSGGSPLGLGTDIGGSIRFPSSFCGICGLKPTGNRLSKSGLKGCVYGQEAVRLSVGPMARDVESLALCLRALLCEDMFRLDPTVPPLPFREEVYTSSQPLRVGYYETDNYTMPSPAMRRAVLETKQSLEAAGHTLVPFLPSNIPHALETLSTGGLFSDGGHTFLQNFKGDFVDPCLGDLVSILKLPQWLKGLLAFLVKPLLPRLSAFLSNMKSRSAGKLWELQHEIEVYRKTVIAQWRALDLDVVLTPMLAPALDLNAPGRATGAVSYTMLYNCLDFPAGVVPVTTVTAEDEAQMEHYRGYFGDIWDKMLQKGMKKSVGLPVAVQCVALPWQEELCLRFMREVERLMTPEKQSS
# Experiment: FAAH substrate evaluation: formation of acid metabolite
# Assay type: biochemical
# Conditions: 0.5 ng/μL rhFAAH, 1 μM test compound, room temperature, pH 8.0, 0-60 minutes
# Description: Purified recombinant human FAAH (rhFAAH) was purchased from Cayman Chemical (Ann Arbor, MI, USA). The total volume for each incubation was 400 μL containing a final 0.5 ng/μL rhFAAH, 1 μM test compound, 1.25% ethanol or 1 μM PF-3845 (FAAH inhibitor), and 0.1% bovine serum albumin in Tris-EDTA buffer at pH 8.0). The positive control was LL-341001. The incubation was conducted at the room temperature. At 0, 5, 15, 30 and 60 minutes, an aliquot of 30 μL reaction mixtures was removed and mixed with 300 μL acetonitrile containing 5 ng/mL terfenadine and 10 ng/mL tolbutamide as internal standards to quench the reaction. The resulting mixture was centrifuged at 4000 rpm, 4° C. for 15 minutes, and 100 μL supernatant was ready for LC-MS/MS analysis to measure the formation of acid metabolite.
# Acquity Ultra Performance LC system from Waters was used for sample analysis. The chromatography was performed on a reverse phase Kinetex 2.6 μm C18 column, 2.1×30 mm, 100 Å. The mobile phase A comprised of 0.1% formic acid in water and mobile phase B comprised of 0.1% formic acid in acetonitrile with a 2-min run time at the flow rate of 0.8 mL/min for the acid metabolite from positive control or a 1.5 min run time at the flow rate of 0.9 mL/min for the acid metabolite of test compounds. The mass spectrometer (API-5500 and API Q Trap 4000 Applied Biosystems/MDS SCIEX Instruments, Framingham, MA, USA) was operated under ESI positive or negative ion MRM mode.
# The formation of acid metabolite was monitored and quantified using one calibration point of 1 μM. The observed rate constant (ke) for the acid metabolite formation was calculated by plotting the metabolite concentration versus time of incubation with the slope being ke and is shown in Table 1.
row,Compound,ke (observed rate constant for the acid metabolite formation)
1,CCNC(=O)COc1cc(Cl)c(Cc2ccc(O)c(C(C)C)c2)c(Cl)c1 [Compound 2],A (A = ke is more than or equal to 0.1)
2,CCCNC(=O)COc1cc(Cl)c(Cc2ccc(O)c(C(C)C)c2)c(Cl)c1 [Compound 3],A (A = ke is more than or equal to 0.1)
3,C=CCNC(=O)COc1cc(Cl)c(Cc2ccc(O)c(C(C)C)c2)c(Cl)c1 [Compound 4],A (A = ke is more than or equal to 0.1)
4,C#CCNC(=O)COc1cc(Cl)c(Cc2ccc(O)c(C(C)C)c2)c(Cl)c1 [Compound 5],A (A = ke is more than or equal to 0.1)
5,CC(C)c1cc(Cc2c(Cl)cc(OCC(=O)NCCO)cc2Cl)ccc1O [Compound 6],A (A = ke is more than or equal to 0.1)
6,CC(C)c1cc(Cc2c(Cl)cc(OCC(=O)NC[C@@H](C)O)cc2Cl)ccc1O [Compound 7],B (B = ke is less than 0.1 and more than 0)
7,CC(C)c1cc(Cc2c(Cl)cc(OCC(=O)NC[C@H](C)O)cc2Cl)ccc1O [Compound 8],B (B = ke is less than 0.1 and more than 0)
8,CC(C)c1cc(Cc2c(Cl)cc(OCC(=O)N[C@H](C)CO)cc2Cl)ccc1O [Compound 9],A (A = ke is more than or equal to 0.1)
9,CC(C)c1cc(Cc2c(Cl)cc(OCC(=O)N[C@@H](C)CO)cc2Cl)ccc1O [Compound 10],A (A = ke is more than or equal to 0.1)
10,CC(C)c1cc(Cc2c(Cl)cc(OCC(=O)NC(CO)CO)cc2Cl)ccc1O [Compound 11],B (B = ke is less than 0.1 and more than 0)
11,CC(C)c1cc(Cc2c(Cl)cc(OCC(=O)NCCN)cc2Cl)ccc1O [Compound 12],B (B = ke is less than 0.1 and more than 0)
12,CC(C)c1cc(Cc2c(Cl)cc(OCC(=O)NCCS(=O)O)cc2Cl)ccc1O [Compound 13],B (B = ke is less than 0.1 and more than 0)
13,CC(C)c1cc(Cc2c(Cl)cc(OCC(=O)NCCF)cc2Cl)ccc1O [Compound 14],A (A = ke is more than or equal to 0.1)
14,CC(C)c1cc(Cc2c(Cl)cc(OCC(=O)NCC(F)F)cc2Cl)ccc1O [Compound 15],A (A = ke is more than or equal to 0.1)
15,CC(C)c1cc(Cc2c(Cl)cc(OCC(=O)NCC(F)(F)F)cc2Cl)ccc1O [Compound 16],A (A = ke is more than or equal to 0.1)
16,CC(C)c1cc(Cc2c(Cl)cc(OCC(=O)NC3CC3)cc2Cl)ccc1O [Compound 17],A (A = ke is more than or equal to 0.1)
17,CC(C)c1cc(Cc2c(Cl)cc(OCC(=O)NC3COC3)cc2Cl)ccc1O [Compound 18],A (A = ke is more than or equal to 0.1)
18,CC(C)c1cc(Cc2c(Cl)cc(OCC(=O)N(C)C)cc2Cl)ccc1O [Compound 19],B (B = ke is less than 0.1 and more than 0)
19,CC(C)c1cc(Cc2c(Cl)cc(OCC(=O)Nc3ccccc3O)cc2Cl)ccc1O [Compound 20],A (A = ke is more than or equal to 0.1)
20,CC(C)c1cc(Cc2c(Cl)cc(OCC(=O)Nc3cccc(O)c3)cc2Cl)ccc1O [Compound 21],A (A = ke is more than or equal to 0.1)
21,CC(C)c1cc(Cc2c(Cl)cc(OCC(=O)NCc3ccccc3)cc2Cl)ccc1O [Compound 22],A (A = ke is more than or equal to 0.1)
22,CC(C)c1cc(Cc2c(Cl)cc(OCC(=O)NCCc3ccccc3)cc2Cl)ccc1O [Compound 23],B (B = ke is less than 0.1 and more than 0)

row,Compound,ke (observed rate constant for the acid metabolite formation)
1,CC(C)c1cc(Cc2c(Cl)cc(OCC(=O)NCCc3ccc(O)c(O)c3)cc2Cl)ccc1O [Compound 24],B (B = ke is less than 0.1 and more than 0)
2,CC(C)c1cc(Cc2c(Cl)cc(OCC(=O)Nc3cccc(F)c3)cc2Cl)ccc1O [Compound 25],A (A = ke is more than or equal to 0.1)
3,CC(C)c1cc(Cc2c(Cl)cc(OCC(=O)NO)cc2Cl)ccc1O [Compound 26],A (A = ke is more than or equal to 0.1)
4,CC(C)c1cc(Cc2c(Cl)cc(OCC(=O)NN)cc2Cl)ccc1O [Compound 27],A (A = ke is more than or equal to 0.1)
5,CONC(=O)COc1cc(Cl)c(Cc2ccc(O)c(C(C)C)c2)c(Cl)c1 [Compound 28],A (A = ke is more than or equal to 0.1)
6,CC(C)c1cc(Cc2c(Cl)cc(OCC(=O)NCC#N)cc2Cl)ccc1O [Compound 29],A (A = ke is more than or equal to 0.1)
7,CC(C)c1cc(Cc2c(Cl)cc(OCC(=O)NCCS(C)(=O)=O)cc2Cl)ccc1O [Compound 30],A (A = ke is more than or equal to 0.1)
8,CC(C)c1c(O)ccc(Cc2c(Cl)cc(OCC(=O)N(C)C)cc2Cl)c1F [Compound 32],A (A = ke is more than or equal to 0.1)
9,CCNC(=O)COc1cc(Cl)c(Cc2ccc(O)c(C(C)C)c2F)c(Cl)c1 [Compound 33],A (A = ke is more than or equal to 0.1)
10,CCN(C)C(=O)COc1cc(Cl)c(Cc2ccc(O)c(C(C)C)c2F)c(Cl)c1 [Compound 34],C (C = ke is 0)
11,CC(C)c1c(O)ccc(Cc2c(Cl)cc(OCC(N)=O)cc2Cl)c1F [Compound 35],A (A = ke is more than or equal to 0.1)
12,CC(C)c1c(O)ccc(Cc2c(Cl)cc(OCC(=O)NCCF)cc2Cl)c1F [Compound 36],A (A = ke is more than or equal to 0.1)
13,CNC(=O)COc1cc(Cl)c(Cc2ccc(O)c(C(C)C)c2)c(Cl)c1F [Compound 37],B (B = ke is less than 0.1 and more than 0)
14,CC(C)c1cc(Cc2c(Cl)cc(OCC(=O)N(C)C)c(F)c2Cl)ccc1O [Compound 38],B (B = ke is less than 0.1 and more than 0)
15,CNC(=O)COc1cc(Cl)c(Cc2ccc(O)c(C(C)C)c2F)c(Cl)c1F [Compound 39],B (B = ke is less than 0.1 and more than 0)
16,CC(C)c1c(O)ccc(Cc2c(Cl)cc(OCC(=O)N(C)C)c(F)c2Cl)c1F [Compound 40],B (B = ke is less than 0.1 and more than 0)
17,CNC(=O)COc1cc(F)c(Cc2ccc(O)c(C(C)C)c2)c(Cl)c1F [Compound 42],A (A = ke is more than or equal to 0.1)
18,CON(C)C(=O)COc1cc(Cl)c(Cc2ccc(O)c(C(C)C)c2F)c(Cl)c1 [Compound 44],A (A = ke is more than or equal to 0.1)
19,CC(C)c1c(O)ccc(Cc2c(Cl)cc(OCC(=O)NN(C)C)cc2Cl)c1F [Compound 45],A (A = ke is more than or equal to 0.1)
20,COc1ccc(NC(=O)COc2cc(Cl)c(Cc3ccc(O)c(C(C)C)c3)c(Cl)c2)cn1 [Compound 101],A (A = ke is more than or equal to 0.1)
21,CC(C)c1cc(Cc2c(Cl)cc(OCC(=O)Nc3cnccn3)cc2Cl)ccc1O [Compound 102],A (A = ke is more than or equal to 0.1)
